Results: patent US20170087106A1, “Method for supporting gut health” (priority 2015, published 2017)

How the values were obtained:
Assay type in all cases: in vivo
iNOS = assay: TNBS rat colitis: colonic iNOS mRNA by real-time PCR; details: colon, oral daily 7 days, mean ± SEM
Procedure: (§1) Female Wistar rats (180-200 g) were randomly assigned to nine groups (n=10). Three groups received treatment with CaPyr (20, 40 and 100 mg/kg); other three received treatment with ethyl pyruvate (20, 40 and 100 mg/kg); and the remaining was treated with sulphasalazine (30 mg/kg). All compounds were dissolved in 1 ml of carboxymethylcellulose (0.2%) in water solution, and administered daily by oral gavage. An untreated TNBS control group and a non-colitic group were included for reference, which received the vehicle used to administer the test compounds. Colonic inflammation was induced in control and treated groups as generally described (see Galvez et al. 2014). Briefly, rats were fasted overnight, anesthetized with halothane and given TNBS dissolved in 0.25 ml of 50% ethanol (v/v) by means of a Teflon cannula inserted 8 cm through the anus. During and after TNBS administration, the rats were kept in a head-down position until they recovered from anaesthesia, and then returned to their cages. Rats from the non-colitic group were administered intracolonically 0.25 ml of phosphate buffered saline instead of TNBS. The treatments were given from the day of the colitis induction until the sacrifice of the rats with an overdose of halothane, seven days later. Animal body weights, occurrence of diarrhoea, and water and food intake were recorded daily throughout all the experiments. Once the animals were sacrificed, the colon was removed aseptically and placed on an ice-cold plate, longitudinally opened and cleaned from their luminal contents with cold saline. Afterwards, it was weighed and its length measured under a constant load (2 g). Each colon was scored for macroscopically visible damage on a 0-10 scale by two observers unaware of the experiment, according to the criteria described before (see Galvez et al. 2014). Colon samples (0.5 cm^2) containing all the layers were taken from a region of the inflamed colon corresponding to the adjacent segment to the gross macroscopic damage and were fixed in 4% buffered formaldehyde for the histological studies. Equivalent colonic segments were also obtained from the non-colitic group. The colon was subsequently minced, aliquoted and kept frozen at −80° C. until biochemical determinations and RNA extraction was performed.
(§2) Analysis of gene expression in colonic samples by RT-qPCR Total RNA from colonic samples was isolated using Trizol® (Thermo Fisher Scientific Inc., Waltham, Mass. USA) following the manufacturer's protocol. All RNA samples were quantified with the Thermo Scientific NanoDrop™ 2000 Spectrophotometer (Thermo Fisher Scientific Inc., Waltham, Mass. USA) and […] of RNA were reverse transcribed using oligo(dT) primers (Promega, Southampton, UK).
(§3) Real time quantitative PCR amplification and detection was performed on optical-grade 48 well plates in an Eco™ Real-Time PCR System (Illumina, CA, USA) with 20 ng of cDNA, the KAPA SYBR® FAST qPCR Master Mix (Illumina, CA, USA) and specific primers at their annealing temperature (Ta). To normalize mRNA expression, the expression of the housekeeping gene, glyceraldehyde-3-phosphate dehydrogenase (GAPDH) was measured. The mRNA relative quantitation was calculated using the ΔΔCt method.

MUC-2 = assay: TNBS rat colitis: colonic MUC-2 mRNA by real-time PCR; details: colon, oral daily 7 days, mean ± SEM
Procedure: as §1, §2, §3

ICAM-1 = assay: TNBS rat colitis: colonic ICAM-1 mRNA by real-time PCR; details: colon, oral daily 7 days, mean ± SEM
Procedure: as §1, §2, §3

IL-23 = assay: TNBS rat colitis: colonic IL-23 mRNA by real-time PCR; details: colon, oral daily 7 days, mean ± SEM
Procedure: as §1, §2, §3

IL-1β [1] = assay: TNBS rat colitis: colonic IL-1β by ELISA; details: colonic tissue, oral daily 7 days, mean ± SEM
Procedure: as §1
(§4) Myeloperoxidase (MPO) activity was measured according to the technique described previously (Krawiszet al., 1984); the results were expressed as MPO units per gram of wet tissue; one unit of MPO activity was defined as that degrading 1 μmol hydrogen peroxide/min at 25° C. Total glutathione (GSH) content was quantified with the recycling assay described by Anderson (1985), and the results were expressed as nmol/g wet tissue. In order to evaluate tissue IL-1β levels, the colonic samples were homogenized in phosphate buffered saline supplemented with 0.1% sodium dodecyl sulfate (SDS), 0.1% sodium deoxycholate, 1% Triton X-100 and protease and phosphatase inhibitors (aprotinin, leupeptin and phenylmethylsulfonyl fluoride). The cytokine was quantified by enzyme-linked immunoabsorbent assay (R&D Systems Inc., Minneapolis, Minn., USA) and the results were expressed as pg/g wet tissue.

IL-17 = assay: TNBS rat colitis: colonic IL-17 mRNA by real-time PCR; details: colon, oral daily 7 days, mean ± SEM
Procedure: as §1, §2, §3

[2] = system: TNBS experimental rat colitis; assay: TNBS rat colitis: colonic macroscopic damage score and weight/length ratio; details: for Damage Score (0-10) / Weight/length: TNBS rat colitis, oral daily 7 days, mean ± SEM; for Weight/length: colon
Procedure: as §1

glutathione (GSH) = assay: TNBS rat colitis: colonic total glutathione (GSH) content; details: colonic tissue, oral daily 7 days, mean ± SEM
Procedure: as §1, §4

myeloperoxidase (MPO) = assay: TNBS rat colitis: colonic myeloperoxidase (MPO) activity; details: colonic tissue, oral daily 7 days, mean ± SEM
Procedure: as §1, §4

IL-12 = assay: TNBS rat colitis: colonic IL-12 mRNA by real-time PCR; details: colon, oral daily 7 days, mean ± SEM
Procedure: as §1, §2, §3

CINC-1 = assay: TNBS rat colitis: colonic CINC-1 mRNA by real-time PCR; details: colon, oral daily 7 days, mean ± SEM
Procedure: as §1, §2, §3

IL-1β [3] = assay: TNBS rat colitis: colonic IL-1β mRNA by real-time PCR; details: colon, oral daily 7 days, mean ± SEM
Procedure: as §1, §2, §3

IL-6 = assay: TNBS rat colitis: colonic IL-6 mRNA by real-time PCR; details: colon, oral daily 7 days, mean ± SEM
Procedure: as §1, §2, §3

TFF-3 = assay: TNBS rat colitis: colonic TFF-3 mRNA by real-time PCR; details: colon, oral daily 7 days, mean ± SEM
Procedure: as §1, §2, §3

[4] = system: TNBS experimental rat colitis; assay: TNBS rat colitis: microscopic (histological) damage score; details: oral daily 7 days, mean ± SEM
Procedure: as §1
Cross-sections were selected and embedded in paraffin. Full-thickness sections of 5 μm were obtained at different levels and stained with haematoxylin and eosin. The histological damage was evaluated by a pathologist observer, who was blinded to the experimental groups, according to the criteria previously described by Galvez.

MCP-1 = assay: TNBS rat colitis: colonic MCP-1 mRNA by real-time PCR; details: colon, oral daily 7 days, mean ± SEM
Procedure: as §1, §2, §3

## calcium pyruvate [CaPyr]
iNOS; 20 mg/kg
  iNOS mRNA expression: 10.37 ± 1.83 fold increase
iNOS; 40 mg/kg
  iNOS mRNA expression: 8.85 ± 3.36 fold increase
iNOS; 100 mg/kg
  iNOS mRNA expression: 9.15 ± 1.53 fold increase
MUC-2; 20 mg/kg
  MUC-2 mRNA expression: 0.50 ± 0.14 fold increase
MUC-2; 40 mg/kg
  MUC-2 mRNA expression: 0.53 ± 0.16 fold increase
MUC-2; 100 mg/kg
  MUC-2 mRNA expression: 0.56 ± 0.11 fold increase
ICAM-1; 20 mg/kg
  ICAM-1 mRNA expression: 1.64 ± 0.25 fold increase
ICAM-1; 40 mg/kg
  ICAM-1 mRNA expression: 0.95 ± 0.19 fold increase
ICAM-1; 100 mg/kg
  ICAM-1 mRNA expression: 2.77 ± 0.44 fold increase
IL-23; 20 mg/kg
  IL-23 mRNA expression: 1.47 ± 0.24 fold increase
IL-23; 40 mg/kg
  IL-23 mRNA expression: 1.02 ± 0.21 fold increase
IL-23; 100 mg/kg
  IL-23 mRNA expression: 1.98 ± 0.30 fold increase
IL-1β [1]; 20 mg/kg
  IL-1β (ELISA): 1095.0 ± 165.0 ng/g tissue
IL-1β [1]; 40 mg/kg
  IL-1β (ELISA): 765.0 ± 60.0 ng/g tissue
IL-1β [1]; 100 mg/kg
  IL-1β (ELISA): 810.1 ± 120.0 ng/g tissue
IL-17; 20 mg/kg
  IL-17 mRNA expression: 0.84 ± 0.09 fold increase
IL-17; 40 mg/kg
  IL-17 mRNA expression: 0.63 ± 0.27 fold increase
IL-17; 100 mg/kg
  IL-17 mRNA expression: 1.83 ± 0.48 fold increase
[2]; 20 mg/kg
  Damage Score (0-10): 7.1 ± 0.4
  Weight/length: 186.0 ± 22.8 mg/cm
[2]; 40 mg/kg
  Damage Score (0-10): 5.7 ± 0.4
  Weight/length: 184.6 ± 25.1 mg/cm
[2]; 100 mg/kg
  Damage Score (0-10): 6.6 ± 0.6
  Weight/length: 198.9 ± 15.0 mg/cm
[2]; rats, 20, 40 and 100 mg/kg body weight, 7 days oral treatment
  effect in TNBS-induced colitis (in words): intestinal anti-inflammatory effects
[2]; rats, 7 days oral treatment
  efficacy in TNBS colitis compared with the other treatments (in words): more effective than ethyl pyruvate and even better than the therapeutic drug Sulphasalazine
Glutathione (GSH); 20 mg/kg
  GSH: 389 ± 55 nmol/g tissue
Glutathione (GSH); 40 mg/kg
  GSH: 675 ± 67 nmol/g tissue
Glutathione (GSH); 100 mg/kg
  GSH: 768 ± 100 nmol/g tissue
Myeloperoxidase (MPO); 20 mg/kg
  MPO: 48.2 ± 7.2 mU/g tissue
Myeloperoxidase (MPO); 40 mg/kg
  MPO: 48.8 ± 8.2 mU/g tissue
Myeloperoxidase (MPO); 100 mg/kg
  MPO: 57.7 ± 11.5 mU/g tissue
IL-12; 20 mg/kg
  IL-12 mRNA expression: 1.09 ± 0.13 fold increase
IL-12; 40 mg/kg
  IL-12 mRNA expression: 0.66 ± 0.18 fold increase
IL-12; 100 mg/kg
  IL-12 mRNA expression: 1.62 ± 0.30 fold increase
CINC-1; 20 mg/kg
  CINC-1 mRNA expression: 3.59 ± 0.49 fold increase
CINC-1; 40 mg/kg
  CINC-1 mRNA expression: 2.93 ± 0.57 fold increase
CINC-1; 100 mg/kg
  CINC-1 mRNA expression: 3.50 ± 0.90 fold increase
IL-1β [3]; 20 mg/kg
  IL-1β mRNA expression: 3.90 ± 0.61 fold increase
IL-1β [3]; 40 mg/kg
  IL-1β mRNA expression: 2.40 ± 0.61 fold increase
IL-1β [3]; 100 mg/kg
  IL-1β mRNA expression: 4.80 ± 0.90 fold increase
IL-6; 20 mg/kg
  IL-6 mRNA expression: 5.41 ± 1.01 fold increase
IL-6; 40 mg/kg
  IL-6 mRNA expression: 3.20 ± 1.20 fold increase
IL-6; 100 mg/kg
  IL-6 mRNA expression: 4.61 ± 1.01 fold increase
TFF-3; 20 mg/kg
  TFF-3 mRNA expression: 0.84 ± 0.23 fold increase
TFF-3; 40 mg/kg
  TFF-3 mRNA expression: 0.67 ± 0.17 fold increase
TFF-3; 100 mg/kg
  TFF-3 mRNA expression: 0.99 ± 0.19 fold increase
[4]; 20 mg/kg
  Microscopic Damage Score (0-59): 27 ± 2
[4]; 40 mg/kg
  Microscopic Damage Score (0-59): 18 ± 5
[4]; 100 mg/kg
  Microscopic Damage Score (0-59): 13 ± 2
MCP-1; 20 mg/kg
  MCP-1 mRNA expression: 3.03 ± 0.49 fold increase
MCP-1; 40 mg/kg
  MCP-1 mRNA expression: 1.80 ± 0.37 fold increase
MCP-1; 100 mg/kg
  MCP-1 mRNA expression: 2.13 ± 0.41 fold increase
